# pIC50: −log10 of the molar value. Read-outs that look alike come from different tables or passages of the source.
# How the values were obtained:
# OCT2 = molecular target: T1, OCT2 (Homo sapiens, UniProt O15244); assay: Inhibition of model substrate uptake in OCT2-overexpressing HEK293 cells
# T1 sequence (O15244 1-555): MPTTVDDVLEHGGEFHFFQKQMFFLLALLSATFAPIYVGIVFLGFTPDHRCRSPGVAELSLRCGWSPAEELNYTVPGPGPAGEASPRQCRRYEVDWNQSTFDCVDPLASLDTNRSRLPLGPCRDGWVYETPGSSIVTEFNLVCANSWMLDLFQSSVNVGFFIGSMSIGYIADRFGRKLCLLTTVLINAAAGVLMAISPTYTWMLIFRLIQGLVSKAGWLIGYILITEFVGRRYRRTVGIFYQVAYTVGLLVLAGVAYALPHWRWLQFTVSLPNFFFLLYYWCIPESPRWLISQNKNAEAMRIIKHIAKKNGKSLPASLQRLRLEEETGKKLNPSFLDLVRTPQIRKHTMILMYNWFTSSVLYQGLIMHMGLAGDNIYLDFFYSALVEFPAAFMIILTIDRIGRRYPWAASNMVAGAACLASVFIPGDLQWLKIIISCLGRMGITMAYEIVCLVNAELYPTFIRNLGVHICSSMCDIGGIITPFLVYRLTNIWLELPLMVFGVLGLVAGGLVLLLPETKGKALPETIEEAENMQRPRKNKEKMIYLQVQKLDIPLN
# OCT3 = molecular target: T2, OCT3 (Homo sapiens, UniProt O75751); assay: Inhibition of model substrate uptake in OCT3-overexpressing HEK293 cells; assay type: cell-based; details: for stereoselective inhibition of OCT3 (in words): ethambutol and zolmitriptan as substrates
# T2 construct: expressed in transfected cells; host or cells: HEK293
# T2 sequence (O75751 1-556): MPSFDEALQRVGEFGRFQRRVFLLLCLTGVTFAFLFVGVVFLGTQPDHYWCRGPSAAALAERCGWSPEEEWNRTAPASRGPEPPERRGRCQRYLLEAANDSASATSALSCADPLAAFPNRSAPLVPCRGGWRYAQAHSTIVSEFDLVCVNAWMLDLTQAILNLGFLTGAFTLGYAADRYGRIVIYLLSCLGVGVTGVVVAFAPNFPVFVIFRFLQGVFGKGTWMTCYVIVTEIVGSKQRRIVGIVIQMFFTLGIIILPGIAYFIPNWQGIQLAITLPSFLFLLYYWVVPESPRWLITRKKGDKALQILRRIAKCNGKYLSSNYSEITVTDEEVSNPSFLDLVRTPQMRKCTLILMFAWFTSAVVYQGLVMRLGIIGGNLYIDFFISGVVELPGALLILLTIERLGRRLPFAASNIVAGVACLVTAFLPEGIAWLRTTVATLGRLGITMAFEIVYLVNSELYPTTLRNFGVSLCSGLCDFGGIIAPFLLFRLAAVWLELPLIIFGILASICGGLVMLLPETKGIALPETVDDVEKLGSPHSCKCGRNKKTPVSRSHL
# Method in brief: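 IC50 values were fitted with a Hill equation from net uptake, calculated as uptake in overexpressing HEK293 cells minus empty-vector control uptake. Cells were exposed for 5 min to 2 μM model substrate alone, with 20 μM inhibitor, or with a concentration series. Uptake was quantified by ASP^+ fluorescence or LC–MS/MS after lysis in 80% acetonitrile.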
# OCT1 = molecular target: T3, OCT1 (Homo sapiens, UniProt O15245); assay: Inhibition of model substrate uptake in OCT1-overexpressing HEK293 cells; assay type: cell-based; set-up: expressed in transfected cells; host or cells: HEK293; details: for inhibition at 5 min, 20 μM / selectivity ratio at 5 min: OCT1-overexpressing HEK293 cells; for selectivity ratio at 5 min: pH 7.4, OCT1, read-out: x-fold Stereoselectivity
# T3 sequence (O15245 1-554): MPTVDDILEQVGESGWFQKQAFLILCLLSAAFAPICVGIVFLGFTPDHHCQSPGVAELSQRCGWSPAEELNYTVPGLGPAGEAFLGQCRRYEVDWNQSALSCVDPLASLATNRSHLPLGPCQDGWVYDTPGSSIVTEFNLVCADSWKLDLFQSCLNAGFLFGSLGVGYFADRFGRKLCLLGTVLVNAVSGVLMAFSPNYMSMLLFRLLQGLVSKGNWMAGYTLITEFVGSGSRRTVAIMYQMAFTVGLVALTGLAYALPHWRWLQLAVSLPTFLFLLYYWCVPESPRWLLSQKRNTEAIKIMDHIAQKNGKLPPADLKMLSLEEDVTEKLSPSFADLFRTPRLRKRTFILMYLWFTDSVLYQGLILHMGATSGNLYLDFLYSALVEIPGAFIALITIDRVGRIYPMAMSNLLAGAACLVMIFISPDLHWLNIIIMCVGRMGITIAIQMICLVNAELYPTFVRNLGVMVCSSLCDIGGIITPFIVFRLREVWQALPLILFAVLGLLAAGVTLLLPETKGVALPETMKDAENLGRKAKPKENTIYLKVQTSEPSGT
# Protocol: Koepsell and Gorbulev (University of Würzburg, Germany).
# Fluorescence quantification was performed in technical duplicates.
# [1] = human, OCT2-overexpressing HEK293 cells, pH 7.4, probe (S,S)-ethambutol (2 μM), (S,S)-Ethambutol inhibition [%], OCT2, 20 μM inhibitor, 2 μM (S,S)-ethambutol, 5 min
# [2] = human, OCT2-overexpressing HEK293 cells, pH 7.4, probe ASP+ (2 μM), ASP+ inhibition [%], OCT2, 20 μM inhibitor, 2 μM ASP+, 5 min
# [3] = human, OCT2-overexpressing HEK293 cells, pH 7.4, probe N-ethyllidocaine (2 μM), N-Ethyllidocaine inhibition [%], OCT2, 20 μM inhibitor, 2 μM N-ethyllidocaine, 5 min
# [4] = OCT3, 20 μM inhibitor, 2 μM (S)-zolmitriptan, 5 min
# [5] = OCT3, 20 μM inhibitor, 2 μM (S,S)-ethambutol, 5 min
# [6] = OCT3, 20 μM inhibitor, 2 μM ASP+, 5 min
# [7] = OCT1, 20 μM inhibitor, 2 μM (S,S)-ethambutol, 5 min
# [8] = OCT1, 20 μM inhibitor, 2 μM ASP+, 5 min, mean of three experiments
# [9] = OCT1, 20 μM inhibitor, 2 μM sumatriptan, 5 min
# [10] = OCT2, 20 μM inhibitor, 2 μM ASP+, 5 min
# [11] = OCT2, 20 μM inhibitor, 2 μM N-ethyllidocaine, 5 min
# [12] = HEK293, OCT3, 20 μM inhibitor, 2 μM ASP+, 5 min, read-out: ASP+ inhibition [%]
# [13] = human, ratio of the IC50 values of the two enantiomers of the drug
smiles,measurement,setting,value
C#CCN[C@H]1CCc2ccccc21 [(S)-Rasagiline],"inhibition at 5 min, 20 μM",OCT2; [1],57%
same,"inhibition at 5 min, 20 μM",OCT2; [2],59.6%
same,"inhibition at 5 min, 20 μM",OCT2; [3],59.5%
same,(S)-Zolmitriptan inhibition [%],OCT3; [4],6.7%
same,"(S,S)-Ethambutol inhibition [%]",OCT3; [5],8.8%
same,ASP+ inhibition [%],OCT3; [6],-7.7%
same,"(S,S)-Ethambutol inhibition [%]",OCT1; [7],37.5%
same,ASP+ inhibition [%],OCT1; [8],6.9%
same,Sumatriptan inhibition [%],OCT1; [9],50.6%
CC(C)(C)NC[C@@H](O)c1ccc(O)c(CO)c1 [(S)-Salbutamol],"(S,S)-Ethambutol inhibition [%]","OCT2; OCT2, 20 μM inhibitor, 2 μM (S,S)-ethambutol, 5 min",3.0%
same,ASP+ inhibition [%],OCT2; [10],-2.8%
same,N-Ethyllidocaine inhibition [%],OCT2; [11],-17.4%
same,(S)-Zolmitriptan inhibition [%],OCT3; [4],-3.4%
same,"(S,S)-Ethambutol inhibition [%]",OCT3; [5],14.5%
same,ASP+ inhibition [%],OCT3; [6],1.3%
same,"(S,S)-Ethambutol inhibition [%]",OCT1; [7],9.3%
same,ASP+ inhibition [%],OCT1; [8],6.1%
same,Sumatriptan inhibition [%],OCT1; [9],-10.2%
CC(C)C[C@H](N(C)C)C1(c2ccc(Cl)cc2)CCC1 [(S)-Sibutramine],ASP+ inhibition [%],OCT2; [10],83.9%
same,N-Ethyllidocaine inhibition [%],OCT2; [11],44.0%
same,(S)-Zolmitriptan inhibition [%],OCT3,24.1
same,"(S,S)-Ethambutol inhibition [%]",OCT3,23.8
same,ASP+ inhibition [%],OCT3; [6],-0.8%
same,ASP+ inhibition [%],OCT1; [8],38.0%
same,Sumatriptan inhibition [%],"OCT1; human, pH 7.4",72.0%
CC(C)(C)NC[C@H](O)COc1nsnc1N1CCOCC1 [(S)-Timolol],pIC50,"OCT2; IC50, OCT2, Table S5, 2 μM ASP+ as model substrate, 5 min",4.22
same,"inhibition at 5 min, 20 μM",OCT2; [1],14.4%
same,"inhibition at 5 min, 20 μM",OCT2; [2],50.1%
same,"inhibition at 5 min, 20 μM",OCT2; [3],25.1%
same,inhibition at 20 µM,"OCT3; HEK293, 5 min, read-out: (S)-Zolmitriptan inhibition [%], OCT3, 20 μM inhibitor, 2 μM (S)-zolmitriptan, 5 min",16.8%
same,inhibition at 20 µM,"OCT3; HEK293, 5 min, read-out: (S,S)-Ethambutol inhibition [%], OCT3, 20 μM inhibitor, 2 μM (S,S)-ethambutol, 5 min",11.1%
same,inhibition at 20 µM,OCT3; [12],27.8%
same,"inhibition at 5 min, 20 μM","OCT1; human, pH 7.4, probe (S,S)-ethambutol (2 μM), (S,S)-Ethambutol inhibition [%], OCT1, 20 μM inhibitor, 2 μM (S,S)-ethambutol, 5 min",25.6%
same,"inhibition at 5 min, 20 μM","OCT1; human, pH 7.4, probe ASP+ (2 μM), OCT1, 20 μM inhibitor, 2 μM ASP+, 5 min, mean of three experiments, read-out: ASP+ inhibition [%]",3.9%
same,"inhibition at 5 min, 20 μM","OCT1; human, pH 7.4, probe sumatriptan (2 μM), OCT1, 20 μM inhibitor, 2 μM sumatriptan, 5 min, read-out: Sumatriptan inhibition [%]",42.1%
COc1ccc([C@@H](CN(C)C)C2(O)CCCCC2)cc1 [(S)-Venlafaxine],ASP+ inhibition [%],OCT2; [10],21.8%
same,N-Ethyllidocaine inhibition [%],OCT2; [11],13.4%
same,inhibition at 20 µM,"OCT3; HEK293, 5 min, read-out: (S)-Zolmitriptan inhibition [%]",21%
same,inhibition at 20 µM,"OCT3; HEK293, 5 min, read-out: (S,S)-Ethambutol inhibition [%]",4.6%
same,inhibition at 20 µM,OCT3; [12],-11.4%
same,Sumatriptan inhibition [%],"OCT1; human, pH 7.4",66.9%
CCCCN1CCCCC1C(=O)Nc1c(C)cccc1C (stereo not shown) [Bupivacaine],selectivity ratio at 5 min,"OCT2; human, OCT2-overexpressing HEK293 cells, pH 7.4",2.3
same,stereoselective inhibition of OCT3 (in words),OCT3; 20 μM inhibitor,stereoselective inhibition
same,x-fold Stereoselectivity,"OCT1; OCT1, ratio of the IC50 values of the two enantiomers of the drug",1.2 fold
same,selectivity ratio at 5 min,OCT1; [13],1.8
CCN(CC)CC#CCOC(=O)C(O)(c1ccccc1)C1CCCCC1 (stereo not shown) [Oxybutynine],x-fold Stereoselectivity,"OCT2; OCT2, ratio of the IC50 values of the two enantiomers of the drug",1.6 fold
same,x-fold Stereoselectivity,"OCT3; OCT3, ratio of the IC50 values of the two enantiomers of the drug",1.6 fold
same,stereoselective inhibition of OCT3 (in words),OCT3; 20 μM inhibitor,stereoselective inhibition
same,selectivity ratio at 5 min,OCT1; [13],1.2

# Reference: PMC10698726 (Molecular Pharmaceutics, 2023)
